Counter-ions that a name gives are not always drawn.
| melting point [°C] | SMILES |
| --- | --- |
| 131 to 133 | C#CC(CC)Nc1cc(C)nc(Oc2c(C)cc(C)cc2C)c1C(=O)O (centres unmarked) [Example 27, 4-(1-Ethyl-prop-2-ynylamino)-6-methyl-2-(2,4,6-trimethyl-phenoxy)-nicotinic acid] |
| 164.3 | CCC(CC)Nc1cc(C)nc(Oc2c(C)cc(C)nc2C)c1C(N)=O [Example 287, 4-(1-Ethyl-propylamino)-6-methyl-2-(2,4,6-trimethyl-pyridin-3-yloxy)-nicotinamide] |
| 117 to 119 | CCC(CC)Nc1cc(C)nc(Oc2c(C)cc(C)cc2C)c1CN [Example 135, [3-Aminomethyl-6-methyl-2-(2,4,6-trimethyl-phenoxy)-pyridin4-yl]-(1-ethyl-propyl)-amine] |
| 122.6 | CCC(Nc1cc(C)nc(Oc2c(C)cc(OC)cc2C)c1C(=O)NC)C(C)OC (centres unmarked) [Example 284, 4-(1-Ethyl-2-methoxy-propylamino)-2-(4-methoxy-2,6-dimethyl-phenoxy)-6,N-dimethyl-nicotinamide] |
| 106 to 109 | CCC(CC)Oc1cc(C)nc(Oc2c(C)cc(C)cc2C)c1[N+](=O)[O-] [Example 60, 4-(1-Ethyl-propoxy)-6-methyl-3-nitro-2-(2,4,6-trimethyl-phenoxy)-pyridine] |
| 126.5 to 130.5 | CCC(COC)Nc1cc(C)nc(Oc2c(C=O)cccc2OC)c1[N+](=O)[O-] (centres unmarked) [Example 1, 3-Methoxy-2-[4-(1-methoxymethyl-propylamino)-6-methyl-3-nitro-pyridin-2-yloxy]-benzaldehyde] |
| 184 | CCC(CC)Nc1cc(C)nc(Oc2c(C)cc(OC)cc2C)c1C(N)=O [Example 262, 4-(1-Ethyl-propylamino)-2-(4-methoxy-2,6-dimethyl-phenoxy)-6-methyl-nicotinamide] |
| 170 to 172 | CCC(CC)Nc1cc(C)nc(Oc2c(C)cc(C)cc2C)c1NC(=O)C(C)Cl (centres unmarked) [Example 2, 2-Chloro-N-[4-(1-ethyl-propylamino)-6-methyl-2-(2,4,6-trimethyl-phenoxy)-pyridin-3-yl]-propionamide] |
| 75 to 76 | CCC(COC)Nc1cc(C)nc(Oc2ccc(OC(F)(F)F)cc2)c1[N+](=O)[O-] (centres unmarked) [Example 1, (1-Methoxymethyl-propyl)-[6-methyl-3-nitro-2-(4-trifluoromethoxy-phenoxy)-pyridin-4-yl]-amine] |
| 183 to 185 | CCC(CC)Nc1cc(C)nc(Oc2c(C)cc(C)cc2C)c1NC(=O)CCCl [Example 2, 3-Chloro-N-[4-(1-ethyl-propylamino)-6-methyl-2-(2,4,6-trimethyl-phenoxy)-pyridin-3-yl]-propionamide] |
| 126.8 to 129.5 | CCC(COC)Nc1cc(C)nc(Oc2c(OC)cc(OC)cc2OC)c1[N+](=O)[O-] (centres unmarked) [Example 1, (1-Methoxymethyl-propyl)-[6-methyl-3-nitro-2-(2,4,6-trimethoxy-phenoxy)-pyridin-4-yl]-amine] |

Continued, compound first:

| SMILES | melting point [°C] |
| --- | --- |
| Cc1cc(C)c(Oc2nc(C)cc(C(O)C(F)(F)F)c2C)c(C)c1 (centres unmarked) [Example 99, 1-[3,6-Dimethyl-2-(2,4,6-trimethyl-phenoxy)-pyridin-4-yl]-2,2,2-trifluoro-ethanol] | 134 to 139 |
| CCC(CC)Oc1cc(C)nc(Nc2c(C)cc(C)cc2C)c1C(=O)n1ccnc1 [Example 70, [4-(1-Ethyl-propoxy)-6-methyl-2-(2,4,6-trimethyl-phenylamino)-pyridin-3-yl]-imidazol-1-yl-methanone] | 120 to 122 |
| CCC(CC)Oc1cc(C)nc(Nc2c(C)cc(C)cc2C)c1CC(C(=O)OC)C(=O)OC [Example 72, 2-[4-(1-Ethyl-propoxy)-6-methyl-2-(2,4,6-trimethyl-phenylamino)-pyridin-3-ylmethyl]-malonic acid dimethyl ester] | 96 to 98 |
| CCC(CC)Oc1nc(C)nc(Nc2c(C)cc(C)cc2C)c1C(N)=O [Example 120, 4-(1-Ethyl-propoxy)-2-methyl-6-(2,4,6-trimethyl-phenylamino)-pyrimidine-5-carboxylic acid amide] | 174 to 176 |
| CCC(CC)Oc1cc(C)nc(Nc2c(C)cc(C)cc2C)c1CNC(=O)CCl [Example 75, 2-Chloro-N-[4-(1-ethyl-propoxy)-6-methyl-2-(2,4,6-trimethyl-phenylamino)-pyridin-3-ylmethyl]-acetamide] | 142 to 144 |
| CCC(CC)Oc1nc(C)nc(Nc2c(C)cc(C)cc2C)c1C(=O)O [Example 160, 4-(1-Ethyl-propoxy)-2-methyl-6-(2,4,6-trimethyl-phenylamino)-pyrimidine-5-carboxylic acid] | 118 to 120 |
| CCC(CC)Oc1cc(C)nc2c1[nH]c(=O)n2-c1c(C)cc(C)cc1C [Example 166, 7-(1-Ethyl-propoxy)-5-methyl-3-(2,4,6-trimethyl-phenyl)-1,3-dihydro-imidazo[4,5-b]pyridin-2-one] | 184 to 186 |
| CCC(CC)Nc1cc(C)nc2c1nc(N)n2-c1c(C)cc(C)cc1C [Example 170, N7-(1-Ethyl-propyl)-5-methyl-3-(2,4,6-trimethyl-phenyl)-3H-imidazo[4,5-b]pyridine-2,7-diamine] | 158 to 160 |
| CCC(CC)Oc1cc(C)nc(Nc2c(C)cc(C)cc2C)c1C(=O)N(C)C (as salt: HCl) [Example 80, 4-(1-Ethyl-propoxy)-6,N,N-trimethyl-2-(2,4,6-trimethyl-phenylamino)-nicotinamide] | 197 to 200 |
| CCC(CC)Nc1cc(C)nc(Nc2c(C)cc(C)cc2C)c1C(N)=O [Example 119, 4-(1-Ethyl-propylamino)-6-methyl-2-(2,4,6-trimethyl-phenylamino)-nicotinamide] | 204 to 206 |
| CCC(CC)Oc1cc(C)nc(Nc2c(C)cc(C)cc2C)c1 [Example 90, [4-(1-Ethyl-propoxy)-6-methyl-pyridin-2-yl]-(2,4,6-trimethyl-phenyl)-amine] | 98 to 100 |
| CCOC(=S)SCc1c(OC(CC)CC)cc(C)nc1Nc1c(C)cc(C)cc1C [Example 77, Dithiocarbonic acid O-ethyl ester S-[4-(1-ethyl-propoxy)-6-methyl-2-(2,4,6-trimethyl-phenylamino)-pyridin-3-ylmethyl] ester] | 55 to 57 |
| CCC(Nc1cc(C)nc(Oc2c(C)cc(Cl)cc2C)c1CO)C(C)O (centres unmarked) [Example 25, 3-[2-(4-Chloro-2,6-dimethyl-phenoxy)-3-hydroxymethyl-6-methyl-pyridin-4-ylamino]-pentan-2ol] | 180 to 182 |
| CCC(CC)Oc1cc(C)nc2c1n(C)c(=O)n2-c1c(C)cc(C)cc1C [Example 167, 7-(1-Ethyl-propoxy)-1,5-dimethyl-3-(2,4,6-trimethyl-phenyl)-1,3-dihydro-imidazo[4,5-b]pyridin-2-one] | 151 to 153 |
| CCC(O)C(CC)Nc1cc(C)nc(Oc2c(C)cc(Cl)cc2C)c1CO (centres unmarked) [Example 26, 4-[2-(4-Chloro-2,6-dimethyl-phenoxy)-3-hydroxymethyl-6-methyl-pyridin-4-ylamino]-hexan-3-ol] | 145 to 148 |
| CCC(CC)Oc1cc(C)nc(Nc2c(C)cc(C)cc2C)c1C(N)=O (as salt: HCl) [Example 78, 4-(1-Ethyl-propoxy)-6-methyl-2-(2,4,6-trimethyl-phenylamino)-nicotinamide] | 185 to 187 |
| CCC(CC)Oc1nc(C)nc(Nc2c(C)cc(C)cc2C)c1CO [Example 161, [4-(1-Ethyl-propoxy)-2-methyl-6-(2,4,6-trimethyl-phenylamino)-pyrimidin-5-yl]-methanol] | 121 to 123 |
| CCC(CC)Oc1cc(C)nc(Nc2c(C)cc(C)cc2C)c1NC(=O)CCl [Example 124, 2-Chloro-N-[4-(1-ethyl-propoxy)-6-methyl-2-(2,4,6-trimethyl-phenylamino)-pyridin-3-yl]-acetamide] | 79 to 82 |
| CCC(CC)Nc1cc(C)nc(Nc2c(C)cc(C)cc2C)c1CC(C(=O)OC)C(=O)OC [Example 129, 2-[4-(1-Ethyl-propylamino)-6-methyl-2-(2,4,6-trimethyl-phenylamino)-pyridin-3-ylmethyl]-malonic acid dimethyl ester] | 136 to 138 |
| CCC(CC)Oc1cc(C)nc(Nc2c(C)cc(C)cc2C)c1CN(C)C.Cl | 85 to 88 |
| CC[C@H]1COC(=O)N1c1cc(C)nc(Oc2c(C)cc(Cl)cc2C)c1C(=O)OC [Example 18, 2-(4-Chloro-2,6-dimethyl-phenoxy)-4-(S)-(4-ethyl-2-oxo-oxazolidin-3-yl)-6-methyl-nicotinic acid methyl ester] | 144 to 145.5 |
